Experimental data published in patent publication US9174965B2, “Pyrimidinylpiperidinyloxypyridone analogues as GPR119 modulators” (BRISTOL-MYERS SQUIBB COMPANY, priority 2012, dated 2015).
≈ marks a conversion by molar mass, not a printed value. Where two headings read alike, the source gives them in different places.

Tests used:
[1] = molecular target: L-type calcium channel Cav1.2 (Homo sapiens (Human), UniProt Q13936); assay: Patch clamp electrophysiology assay, L-type calcium channel; format: cell-based; settings: pH 7.35, HEK293, read-out: Ca % Inhibition
Experimental: (§1) Compound Electrophysiology Assays
(§2) Recombinant ion channels (hERG, sodium [SCN5A], and L-type calcium [Cav1.2]) stably expressed in human embryonic kidney cells (HEK293) are used as test systems, and each system is tested using 2-3 replicates in the conventional patch clamp assay.
(§3) Ion channel membrane current recordings are made with a Multiclamp 700 series integrating patch-clamp amplifier (Axon Instruments, Foster City, Calif.) using the whole-cell variant of the patch-clamp technique.
Cells expressing hERG, sodium [SCN5A], or L-type calcium [Cav1.2] channels are placed in a plexiglass bath chamber, mounted on the stage of an inverted microscope, and perfused continuously with bath solution. […]
L-type calcium currents are elicited by 200 ms step depolarizations applied from a holding potential of −50 mV to a test potential of +30 mV. The voltage steps are applied in 5 second intervals (0.2 Hz) and the peak inward current is recorded. […] The peak inward current is monitored until a new steady-state in the presence of test article is achieved.
Compounds are tested in 3 cells at each concentration in each ion channel assay. […] All currents were recorded at room temperature ˜25° C. IC50 values are calculated using the sigmoidal concentration-response equation Y=A+((B−A)/(1+((C/X)^D))) in XLfit where A and B are the minimum and maximum % inhibition, C is the IC50 and D is the slope factor. […]

in vitro = settings: human, microsomes, pH 7.4
Experimental: Metabolic Stability in Liver Microsomes Test
The test compound was received as a 3.5 mM stock solution in 100 percent dimethyl sulfoxide (“DMSO”, Sigma Aldritch). The compound solution was diluted to create a 50 μM acetonitrile (“ACN”, Sigma Aldritch) solution containing 1.4% DMSO, which is then used as a 100-fold stock for incubation with microsomes. The test compound, β-nicotinamide adenine dinucleotide phosphate (“NADPH”, AppliChem Inc.) and liver microsome solutions are combined for incubation in three steps:
1) 450 μl of liver microsome suspension, protein concentration of 1.1 mg/ml in 100 mM sodium (+)/phosphate (“NaPi”, pH 7.4, Sigma Aldritch) buffer, 5 mM magnesium chloride (“MgCl2, Sigma Aldritch) buffer, is pre-warmed at 37° C.;
2) 5 μl of 50 μM test compound (98.6% ACN, 1.4% DMSO) is added to the same tube and pre-incubated at 37° C. for 5 minutes; and
3) The reaction is initiated by the addition of 50 μl of pre-warmed 10 mM NADPH solution in 100 mM NaPi, pH 7.4.
Reaction components are mixed well and then 65 μl are immediately transferred into 130 μl quench/stop solution (zero-time point, T0). The reactions are incubated at 37° C. for 5, 10, 15, 30 and 45 minutes and at each time-point a 65 μl aliquot is transferred into 130 μl of quench solution. ACN containing Internal Standard (100 ng/ml), is used as the quench solution to terminate metabolic reactions. The quenched mixtures are centrifuged at 1500 rpm (˜500×g) in an Allegra X-12 centrifuge, SX4750 rotor (Beckman Coulter Inc., Fullerton, Calif.) for fifteen minutes to pellet denatured microsomes. A volume of 90 μl of supernatant extract, containing the mixture of parent compound and its metabolites, is then transferred to a separate 96-well plate for LC/MS-MS analysis to determine the percent of parent compound that is remaining in the mixture. Peak integration is performed on all samples using the Hepatic Clearance Calculator of QuickCalc by Gubbs, Inc. The percent remaining calculation is performed by comparing the LC-MS/MS peak areas from the samples at each time point to those from the T0 samples for each compound. T1/2 values are calculated from linear regression of the LN (% Remaining) over time, and the slope of that regression (Kel) is used to calculate T1/2, using the following equation: T1/2=−0.693/Kel.

sodium channel SCN5A = sodium channel SCN5A (Homo sapiens (Human), UniProt Q14524); assay: Patch clamp electrophysiology assay, sodium channel; format: cell-based; settings: pH 7.4, 10 μM, HEK293, read-out: Na % Inhibition
Chain of sodium channel SCN5A (Q14524 whole entry): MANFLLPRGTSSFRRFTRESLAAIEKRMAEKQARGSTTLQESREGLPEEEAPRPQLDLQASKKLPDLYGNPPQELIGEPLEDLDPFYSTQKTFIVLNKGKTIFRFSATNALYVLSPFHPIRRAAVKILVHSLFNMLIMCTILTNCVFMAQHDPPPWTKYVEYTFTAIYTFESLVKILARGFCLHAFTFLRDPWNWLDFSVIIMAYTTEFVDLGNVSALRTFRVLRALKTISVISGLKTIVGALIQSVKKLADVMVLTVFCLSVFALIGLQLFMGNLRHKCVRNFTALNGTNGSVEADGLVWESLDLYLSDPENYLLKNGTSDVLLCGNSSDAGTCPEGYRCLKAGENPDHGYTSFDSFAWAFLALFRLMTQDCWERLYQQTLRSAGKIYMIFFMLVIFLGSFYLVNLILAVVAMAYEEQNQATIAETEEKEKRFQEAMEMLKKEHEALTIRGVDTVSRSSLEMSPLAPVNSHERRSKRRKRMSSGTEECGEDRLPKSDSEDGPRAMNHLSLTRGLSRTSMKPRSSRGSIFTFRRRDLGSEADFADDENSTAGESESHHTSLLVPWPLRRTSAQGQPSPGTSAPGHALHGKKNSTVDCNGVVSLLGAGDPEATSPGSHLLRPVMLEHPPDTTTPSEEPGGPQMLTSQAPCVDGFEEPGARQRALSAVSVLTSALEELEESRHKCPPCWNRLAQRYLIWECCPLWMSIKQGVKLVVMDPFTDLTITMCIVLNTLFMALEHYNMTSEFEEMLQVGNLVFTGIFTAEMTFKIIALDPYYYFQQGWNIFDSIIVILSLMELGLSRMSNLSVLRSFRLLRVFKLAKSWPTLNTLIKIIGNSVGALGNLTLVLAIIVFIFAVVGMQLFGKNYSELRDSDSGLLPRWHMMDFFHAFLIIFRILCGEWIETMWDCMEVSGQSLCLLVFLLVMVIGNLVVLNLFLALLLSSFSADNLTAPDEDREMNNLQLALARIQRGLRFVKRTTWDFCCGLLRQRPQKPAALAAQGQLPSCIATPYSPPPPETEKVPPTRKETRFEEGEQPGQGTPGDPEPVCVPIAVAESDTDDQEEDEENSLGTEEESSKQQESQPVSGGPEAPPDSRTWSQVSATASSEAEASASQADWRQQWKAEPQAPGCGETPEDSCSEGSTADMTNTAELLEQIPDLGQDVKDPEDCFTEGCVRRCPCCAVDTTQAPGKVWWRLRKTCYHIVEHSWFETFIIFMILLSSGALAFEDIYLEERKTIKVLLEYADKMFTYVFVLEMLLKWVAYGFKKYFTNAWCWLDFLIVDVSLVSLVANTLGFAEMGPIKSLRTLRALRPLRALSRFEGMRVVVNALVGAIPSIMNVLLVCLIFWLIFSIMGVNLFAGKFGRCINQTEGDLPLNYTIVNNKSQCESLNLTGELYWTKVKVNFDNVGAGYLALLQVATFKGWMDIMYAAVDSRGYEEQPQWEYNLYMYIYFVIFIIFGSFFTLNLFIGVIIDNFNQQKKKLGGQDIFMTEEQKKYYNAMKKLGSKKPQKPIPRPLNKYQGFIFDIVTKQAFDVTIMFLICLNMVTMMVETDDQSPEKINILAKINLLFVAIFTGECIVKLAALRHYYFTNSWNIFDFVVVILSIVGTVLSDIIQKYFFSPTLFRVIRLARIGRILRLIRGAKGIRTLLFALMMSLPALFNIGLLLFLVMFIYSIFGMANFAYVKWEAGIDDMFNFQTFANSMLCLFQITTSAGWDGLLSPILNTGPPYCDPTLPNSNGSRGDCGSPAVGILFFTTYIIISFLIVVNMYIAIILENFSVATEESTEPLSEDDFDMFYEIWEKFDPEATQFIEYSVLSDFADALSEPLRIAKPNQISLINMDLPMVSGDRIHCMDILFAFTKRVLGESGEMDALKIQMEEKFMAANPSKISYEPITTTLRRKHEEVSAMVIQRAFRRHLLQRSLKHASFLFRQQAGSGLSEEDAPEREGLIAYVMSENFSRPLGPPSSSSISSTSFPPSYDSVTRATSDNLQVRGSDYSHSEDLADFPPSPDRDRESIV
Experimental: as §1, §2, §3
Cells expressing hERG, sodium [SCN5A], or L-type calcium [Cav1.2] channels are placed in a plexiglass bath chamber, mounted on the stage of an inverted microscope, and perfused continuously with bath solution.
The sodium current bath solution contains (in mM): 70 NaCl, 70 NMDG, 4 KCl, 1.8 CaCl2, 1 MgCl2, 10 glucose, 10 HEPES (pH 7.4, NaOH). The patch pipette filling solution used in sodium experiments contains (in mM): 130 KCl, 1 MgCl2, 1 CaCl2, 5 ATP-K2, 10 EGTA, 10 HEPES (pH 7.2, KOH).
For determining steady state inhibition, sodium currents are elicited every 5 seconds (0.2 Hz) using the following voltage protocol. Cells are held at a potential of −90 mV and stepped to −20 mV for 45 ms. The peak sodium current in response to the depolarizing step to −20 mV is monitored in the control buffer and after application of test article until a new steady state in the presence of the test article is achieved. To assess the rate dependent inhibition of the sodium currents, trains of voltage steps at frequencies of 1 and 4 Hz (30 sweeps each) are applied to the cell prior to application of test article (control) and after steady state inhibition by test article, as determined at 0.2 Hz frequency. The voltage waveform used in the rate dependence experiments is the same as the waveform used for evaluating steady state inhibition at 0.2 Hz stimulation frequency. Rate dependent inhibition is calculated by comparing the 30th voltage sweep in presence of test article to the 30th voltage sweep under control conditions at each frequency tested.
Compounds are tested in 3 cells at each concentration in each ion channel assay. Currents are sampled at rates at least 2 times the low pass filter rate. The flow rate is kept constant throughout the experiments. All currents were recorded at room temperature ˜25° C. IC50 values are calculated using the sigmoidal concentration-response equation Y=A+((B−A)/(1+((C/X)^D))) in XLfit where A and B are the minimum and maximum % inhibition, C is the IC50 and D is the slope factor.
Find below in Table 11 data for compared compounds (See WO 2011/127106 A1).

male C57BL/6J mice = assay: Mouse oral glucose tolerance test; format: in vivo; settings: for Glucose Lowering: at the minimally efficacious dose, plasma glucose AUC in oGTT; for Minimally efficacious Dose: oGTT in C57BL/6J mice
Experimental: Mouse Oral Glucose Tolerance Test
Twenty four (24) male C57BL/6J mice (8-10 weeks old, average weight 28 g) were randomized into 4 groups (1 mouse/cage) of 6 mice per group based on fed plasma glucose and body weight. Prior to initiating the study, mice were fasted overnight and the next morning they were weighed and placed in the experimental lab. After 30 min in the environment, the mice were bled via tail tip at −60 min and immediately given their first oral administration of vehicle (40% PEG400, 10% Cremophor EL, 50% water) or compound solutions (5 ml/kg). At time 0 the mice were bled and given 50% glucose (2 g/kg) to initiate the oral glucose tolerance test (oGTT). The mice were bled 30, 60 and 120 min after the glucose load. Blood samples were drawn into potassium EDTA, placed on ice during the study and subsequently centrifuged for 10 min at 3000 rpm at 4° C. Plasma samples were diluted 11-fold for glucose analysis in the COBAS MIRA® System (Roche Diagnostics). Area under the curve was calculated from the plasma glucose time course data using the trapezoid rule with fasting plasma glucose as the baseline (GraphPad Prism Software). The statistical significance of the changes in the glucose AUCs resulting from the different treatments was determined by one-way ANOVA followed by Dunnett's test using the vehicle group as the control (JMP software, release 5.1.2).
Find below in Table 7 data for compared compounds (See WO 2009/012275 A1).

Aqueous solubility assay = format: physicochemical; settings: aqueous buffer, thermodynamic from solid; pH 6.5 phosphate buffer, room temperature, 18-24 h
Experimental: Approximately 0.75 mg of accurately weighed test compound was added to 1 mL of a pH 6.5 phosphate buffer (50 mM Potassium Phosphate Buffer) to make solutions with a nominal targeted concentration of 1 mM. The vial was then rotated on an orbital shaker at room temperature for 18-24 h. After equilibration time had been met, the test solution was centrifuge filtered through a 0.45 um membrane (Millipore Ultrafree Centrifugal Filters, Durapore PVDF 0.45 um). The filtrate was then analyzed by an Agilent HP1100 HPLC/UV at multiple wavelengths using diode array detection (e.g. 210, 230, 254 and 280 nm) against a previously generated calibration curve to determine compound concentration.
Find below in Table 9 data for compared compounds (See WO 2011/127106 A1).

Compound	inhibition at 10 µM [1] [%]	half-life at 0.5 µM (in vitro) [h]	inhibition at 10 µM (sodium channel SCN5A; human, 1 Hz) [%]	inhibition at 10 µM (sodium channel SCN5A; human, 4 Hz) [%]	inhibition at 10 µM (sodium channel SCN5A; 1 Hz) [%]	inhibition at 10 µM (sodium channel SCN5A; 4 Hz) [%]	Glucose Lowering (male C57BL/6J mice) [%]	Minimally efficacious Dose (male C57BL/6J mice) [mg/kg]	solubility (Aqueous solubility assay) [µg/mL]
Cc1nc(-n2cc(Cl)c(OC3CCN(c4ncc(Cl)cn4)CC3)cc2=O)ccc1N1CC[C@@H](O)C1=O [Example 4, (R)-5-chloro-4-((1-(5-chloropyrimidin-2-yl)piperidin-4-yl)oxy)-5′-(3-hydroxy-2-oxopyrrolidin-1-yl)-6′-methyl-2H-[1,2′-bipyridin]-2-one]	7	1.62	6	7	6	7	−39	0.03	2 (≈ 3.76 µM)
Cc1nc(-n2cc(Cl)c(OC3CCN(c4ncc(Cl)cn4)CC3)cc2=O)ccc1N1CC[C@H](O)C1=O [Example 3, (S)-5-chloro-4-((1-(5-chloropyrimidin-2-yl)piperidin-4-yl)oxy)-5′-(3-hydroxy-2-oxopyrrolidin-1-yl)-6′-methyl-2H-[1,2′-bipyridin]-2-one]	9	1.3			14	23	−26	0.03	1 (≈ 1.88 µM)
